The test system of the test is rats. Description: Anxiolytic activity, elevated plus-maze in rats. Type of test: in vivo, rat. How it is done:
It has in fact recently been postulated that the central CCK-B receptor plays an important role in anxiety. This accords with studies also carried out in man which have shown that the central CCK-B mechanisms have an important function in the mediation of panic attacks [Bradwejn, J.et al; J.Psychopharmacology 6 (1992), 345]. In order to confirm this hypothesis, the anxiolytic activities of several of the most powerful CCK-B antagonists of the invention were evaluated by the method of the "elevated plus-maze" in rats, carried out in accordance with Pellow et al. [J. of Neurosc. Meth. 14(1985), 149-167]. A labyrinth was used in which the length of the cross arm was about 45 cm placed at a height from the ground of 70 cm. On this experimental model, a compound having anxiolytic activity produces a percentage increase in the stay time in the open arms and a percentage increase in the number of entries into the open arms.
The results obtained are given in Table 5 below where the activities obtained with different doses of the compound 4 administered intraperitoneally (IP) are given in comparison with a group of animals treated with a physiological saline in the same way.

`Cc1cc(C)c(NC(=O)CC(CC(=O)O)c2cccc3ccccc23)c(C(=O)N2CCC3(CCCC3)CC2)c1` (stereo not drawn) [Compound 4]: where the note is “0.03 mg/kg I.P., rat”, the “% Effect VS controls (time)” value was 10.4%, the “% Effect Vs controls (entries)” value amounted to 19.3%, the “Entries to open arm/total entries (%)” value is 36.4% and the “Time in open arm/total time (%)” value is given as 21.1%. In addition, under “0.3 mg/kg I.P., rat”, the “% Effect VS controls (time)” value was 47.9%, the “% Effect Vs controls (entries)” value is 39.3%, the “Entries to open arm/total entries (%)” value amounted to 42.5% and the “Time in open arm/total time (%)” value was determined as 28.2%. Moreover, the “percentage stay time in the open arms compared with controls” value (0.3 mg/kg I.P., significant vs saline controls) was “increases the percentage stay time in the open arms”. Under “3.0 mg/kg I.P., rat”, the “% Effect VS controls (time)” value was determined as 4.2%, the “% Effect Vs controls (entries)” value is 11.5%, the “Entries to open arm/total entries (%)” value was found to be 34.0% and the “Time in open arm/total time (%)” value worked out at 19.9%. Moreover, where the note is “dose range 0.03-3 mg/kg I.P.”, the “percentage number of entries into the open arm compared with the controls” value is listed as “increases the percentage number of entries into the open arm”. Further, for the setting “plus maze, rat, I.P.”, the anxiolytic effect entry was “displays an anxiolytic effect”.
